Measurements from patent US20240145031A1, “Methods and devices for drug repositioning and drug repurposing as nuclear receptor modulators” (Precision Medicine Lab, priority 2022, published 2024).

Assays:
[1] = target: T1, glucocorticoid receptor recombinant human protein, ligand binding domain (LBD) (Homo sapiens, UniProt P04150); test: nuclear receptor cofactor recruitment peptide array (70 coregulator peptides), ligand induced cofactor peptide interaction profiling; assay type: biochemical; conditions: for weighted log fold change: example 3, weight factors of table 7
T1 construct: purchased Thermo Fisher Scientific A15668
T1 sequence (P04150 524-758 limits assumed): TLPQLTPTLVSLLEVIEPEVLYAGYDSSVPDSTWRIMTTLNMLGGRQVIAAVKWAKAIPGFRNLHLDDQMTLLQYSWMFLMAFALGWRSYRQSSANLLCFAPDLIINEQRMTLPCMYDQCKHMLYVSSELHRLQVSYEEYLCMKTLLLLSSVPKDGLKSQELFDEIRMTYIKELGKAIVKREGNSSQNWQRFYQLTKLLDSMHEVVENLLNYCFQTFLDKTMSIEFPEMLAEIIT
Protocol: Interactions between the glucocorticoid receptor ligand binding domain and the selected drugs for repurposing and coregulator peptides were determined using the method as described by Zalachoras et al 2013^xxvii Each peptide array consisting of 70 coregulator peptides as described in table 1 were incubated with a reaction mixture of 1 nM purified glucocorticoid receptor recombinant human protein, ligand binding domain (LBD), (Thermo Fisher Scientific, cat #A15668), ALEXA488-conjugated anti-GST antibody and buffer F (PV4689, A-11131, and PV4547; Invitrogen). […] For ligand induced cofactor peptide interaction profiling the set of repurposing drugs were tested at a concentration of 0.05 mM compared to solvent (2% DMSO in water). Incubation was performed at 20° C. on the cofactor peptide array. Glucocorticoid receptor binding to each peptide on the array, reflected by fluorescent signal, was quantified by image analysis using R-based software (Precision Medicine Lab). The 70 coregulator peptides used represent a range of coregulator nuclear receptor-boxes known to interact with the glucocorticoid receptor and other nuclear receptors. The binding profiles were generated for glucocorticoid receptor-LBD treated with the repurposing drugs vs cortisol.
The R2 is calculated using the data for each of the 70 cofactor peptides using the same weight.
In this example a weight factor was applied on the log fold change data of example 1 to determine the similarities between the tested repositioning drugs versus cortisol using the coefficient of determination, R2, between the weighted log fold change data of the tested repurposing drug to the positive control, cortisol. […] In this example 14 cofactor peptides were used (table 3).

[2] = target: T1, glucocorticoid receptor recombinant human protein, ligand binding domain (LBD); test: as above; assay type: biochemical; conditions: example 3, weight factors of table 7

With `C[C@]12CCC(=O)C=C1CC[C@@H]1[C@@H]2[C@@H](O)C[C@@]2(C)[C@H]1CC[C@]2(O)C(=O)CO` [PC, Cortisol] the “binding to coregulator peptide no 22 NCOA1_1421_1444 compared to the negative control (NC), DMSO” value ([1]; FIG. 2, 0.05 mM) was “increased binding”, the “weighted log fold change” value ([1]; peptide 24 NCOA1_738_759) was 0.168 and the “weighted log fold change” value ([1]; peptide 26 NCOA2_679_700) was 0.056. For the same molecule, the “weighted log fold change” value ([1]; peptide 27 NCOA2_734_755) was 0.366, the “weighted log fold change” value ([1]; peptide 52 PELP1_21_42) was 0.028 and the “weighted log fold change” value ([1]; peptide 58 PRGC1_134_154) was 0.835. For the same molecule, the “weighted log fold change” value ([1]; peptide 59 PRGC2_146_166) was 0.113, the “weighted log fold change” value ([1]; peptide 63 TIF1A_748_769) was 0.058 and the “weighted log fold change” value ([1]; peptide 68 UBE3A_650_671) was 0.357. The “weighted log fold change” value ([1]; peptide 70 ZNHI3_90_111) was 0.025, the log fold change ([1]; example 4, weight factor of 1, peptide 11 IKBB_278_299) was 0.611 and the log fold change ([1]; example 4, weight factor of 1, peptide 27 NCOA2_734_755) was 1.465. It also gave a log fold change ([1]; example 4, weight factor of 1, peptide 59 PRGC2_146_166) of 0.902, a log fold change ([1]; example 4, weight factor of 1, peptide 68 UBE3A_650_671) of 1.430 and a log fold change ([1]; peptide 1 ANDR_11_32, 0.05 mM vs solvent (2% DMSO)) of 0.549. The log fold change ([1]; peptide 2 CBP_2056_2077, 0.05 mM vs solvent (2% DMSO)) was 0.473, the log fold change ([1]; peptide 3 CENPR_159_177, 0.05 mM vs solvent (2% DMSO)) was 0.669 and the log fold change ([1]; peptide 4 CHD9_1024_1045, 0.05 mM vs solvent (2% DMSO)) was 0.375. For the same molecule, the log fold change ([1]; peptide 5 CNOT1_141_162, 0.05 mM vs solvent (2% DMSO)) was 0.446, the log fold change ([1]; peptide 6 CNOT1_558_579, 0.05 mM vs solvent (2% DMSO)) was 0.386 and the log fold change ([1]; peptide 7 DHX30_49_70, 0.05 mM vs solvent (2% DMSO)) was 0.446. For the same molecule, the log fold change ([1]; peptide 8 EP300_2040_2061, 0.05 mM vs solvent (2% DMSO)) was 0.383, the log fold change ([1]; peptide 9 EP300_70_91, 0.05 mM vs solvent (2% DMSO)) was 0.813 and the log fold change ([1]; peptide 11 IKBB_278_299, 0.05 mM vs solvent (2% DMSO)) was 0.611. It also gave a log fold change ([1]; peptide 13 KMT2D_2674_2695, 0.05 mM vs solvent (2% DMSO)) of 0.589, a log fold change ([1]; peptide 14 LCOR_41_62, 0.05 mM vs solvent (2% DMSO)) of 1.238 and a log fold change ([1]; peptide 15 MAPE_250_271, 0.05 mM vs solvent (2% DMSO)) of 0.090. The log fold change ([1]; peptide 16 MAPE_301_322, 0.05 mM vs solvent (2% DMSO)) was −0.294, the log fold change ([1]; peptide 17 MED1_593_614, 0.05 mM vs solvent (2% DMSO)) was 0.949 and the log fold change ([1]; peptide 18 MEN1_256_277, 0.05 mM vs solvent (2% DMSO)) was 0.192. It also gave a log fold change ([1]; peptide 19 MGMT_87_108, 0.05 mM vs solvent (2% DMSO)) of 0.250, a log fold change ([1]; peptide 20 MLL2_4176_4197, 0.05 mM vs solvent (2% DMSO)) of 0.650 and a log fold change ([1]; peptide 21 MLL2_4703_4724, 0.05 mM vs solvent (2% DMSO)) of 0.531. The log fold change ([1]; peptide 22 NCOA1_1421_1441, 0.05 mM vs solvent (2% DMSO)) was 1.715, the log fold change ([1]; peptide 23 NCOA1_679_700, 0.05 mM vs solvent (2% DMSO)) was 1.097 and the log fold change ([1]; peptide 24 NCOA1_738_759, 0.05 mM vs solvent (2% DMSO)) was 1.340. For the same molecule, the log fold change ([1]; peptide 25 NCOA2_630_651, 0.05 mM vs solvent (2% DMSO)) was 1.253, the log fold change ([1]; peptide 26 NCOA2_679_700, 0.05 mM vs solvent (2% DMSO)) was 1.777 and the log fold change ([1]; peptide 27 NCOA2_734_755, 0.05 mM vs solvent (2% DMSO)) was 1.465. The log fold change ([1]; peptide 28 NCOA2_867_888, 0.05 mM vs solvent (2% DMSO)) was 0.263, the log fold change ([1]; peptide 29 NCOA3_610_631, 0.05 mM vs solvent (2% DMSO)) was 1.176 and the log fold change ([1]; peptide 30 NCOA3_674_695, 0.05 mM vs solvent (2% DMSO)) was 0.197. The log fold change ([1]; peptide 31 NCOA3_726_747, 0.05 mM vs solvent (2% DMSO)) was 1.029, the log fold change ([1]; peptide 32 NCOA4_316_337, 0.05 mM vs solvent (2% DMSO)) was 0.839 and the log fold change ([1]; peptide 34 NCOR1_1925_1946, 0.05 mM vs solvent (2% DMSO)) was 0.398. It also gave a log fold change ([1]; peptide 35 NCOR1_2040_2061, 0.05 mM vs solvent (2% DMSO)) of 0.391, a log fold change ([1]; peptide 36 NELFB_329_350, 0.05 mM vs solvent (2% DMSO)) of 0.195 and a log fold change ([1]; peptide 38 NR0B1_2_23, 0.05 mM vs solvent (2% DMSO)) of 0.415. For the same molecule, the log fold change ([1]; peptide 39 NR0B2_107_128, 0.05 mM vs solvent (2% DMSO)) was 1.538, the log fold change ([1]; peptide 41 NRIP1_174_195, 0.05 mM vs solvent (2% DMSO)) was 0.213 and the log fold change ([1]; peptide 42 NRIP1_369_390, 0.05 mM vs solvent (2% DMSO)) was 1.027. It also gave a log fold change ([1]; peptide 43 NRIP1_489_510, 0.05 mM vs solvent (2% DMSO)) of 0.954, a log fold change ([1]; peptide 44 NRIP1_701_722, 0.05 mM vs solvent (2% DMSO)) of 0.609 and a log fold change ([1]; peptide 45 NRIP1_810_831, 0.05 mM vs solvent (2% DMSO)) of 0.909. It also gave a log fold change ([1]; peptide 46 NRIP1_925_946, 0.05 mM vs solvent (2% DMSO)) of 0.970, a log fold change ([1]; peptide 47 NSD1_895_916, 0.05 mM vs solvent (2% DMSO)) of 0.886 and a log fold change ([1]; peptide 48 PAGR1_103_124, 0.05 mM vs solvent (2% DMSO)) of 1.057. The log fold change ([1]; peptide 49 PAK6_249_270, 0.05 mM vs solvent (2% DMSO)) was 0.362, the log fold change ([1]; peptide 50 PCAF_179_200, 0.05 mM vs solvent (2% DMSO)) was 0.771 and the log fold change ([1]; peptide 51 PELP1_169_190, 0.05 mM vs solvent (2% DMSO)) was 0.496. For the same molecule, the log fold change ([1]; peptide 52 PELP1_21_42, 0.05 mM vs solvent (2% DMSO)) was 0.888, the log fold change ([1]; peptide 53 PELP1_447_468, 0.05 mM vs solvent (2% DMSO)) was 0.771 and the log fold change ([1]; peptide 54 PIAS2_7_28, 0.05 mM vs solvent (2% DMSO)) was 0.383. The log fold change ([1]; peptide 55 PNRC1_306_327, 0.05 mM vs solvent (2% DMSO)) was 0.568, the log fold change ([1]; peptide 56 PPRC1_152_173, 0.05 mM vs solvent (2% DMSO)) was 0.380 and the log fold change ([1]; peptide 57 PR285_1106_1127, 0.05 mM vs solvent (2% DMSO)) was 1.167. It also gave a log fold change ([1]; peptide 58 PRGC1_134_154, 0.05 mM vs solvent (2% DMSO)) of 1.669, a log fold change ([1]; peptide 59 PRGC2_146_166, 0.05 mM vs solvent (2% DMSO)) of 0.902 and a log fold change ([1]; peptide 60 PRGC2_338_358, 0.05 mM vs solvent (2% DMSO)) of 1.230. For the same molecule, the log fold change ([1]; peptide 61 PROX1_58_79, 0.05 mM vs solvent (2% DMSO)) was 0.547, the log fold change ([1]; peptide 62 RAD9A_349_370, 0.05 mM vs solvent (2% DMSO)) was 0.503 and the log fold change ([1]; peptide 63 TIF1A_748_769, 0.05 mM vs solvent (2% DMSO)) was 0.930. The log fold change ([1]; peptide 64 TIP60_477_498, 0.05 mM vs solvent (2% DMSO)) was 0.672, the log fold change ([1]; peptide 65 TREF1_169_190, 0.05 mM vs solvent (2% DMSO)) was 0.886 and the log fold change ([1]; peptide 66 TRRAP_972_993, 0.05 mM vs solvent (2% DMSO)) was 1.371. It also gave a log fold change ([1]; peptide 67 TRXR1_133_154, 0.05 mM vs solvent (2% DMSO)) of 0.623, a log fold change ([1]; peptide 68 UBE3A_650_671, 0.05 mM vs solvent (2% DMSO)) of 1.430 and a log fold change ([1]; peptide 69 WIPI1_120_141, 0.05 mM vs solvent (2% DMSO)) of 1.049. The log fold change ([1]; peptide 70 ZNHI3_90_111, 0.05 mM vs solvent (2% DMSO)) was 0.814, the “weighted log fold change” value ([2]; peptide 22 NCOA1_1421_1441) was 1.715 and the “weighted log fold change” value ([2]; peptide 31 NCOA3_726_747) was 0.515. For the same molecule, the “weighted log fold change” value ([2]; peptide 39 NR0B2_107_128) was 0.769, the “weighted log fold change” value ([2]; peptide 42 NRIP1_369_390) was 0.128 and the “weighted log fold change” value ([2]; peptide 45 NRIP1_810_831) was 0.057.
